Activity calls are given as the source filed them.
Tests used:
Beta-lactamase [1] = biological target: Beta-lactamase (Salmonella choleraesuis (strain SC-B67), UniProt Q5J463); experiment: Epi-absorbance-based counterscreen for selective VIM-2 inhibitors: dose response biochemical high throughput screening assay to identify inhibitors of TEM-1 serine-beta-lactamase.
Beta-lactamase [2] = biological target: T1, Beta-lactamase (Pseudomonas aeruginosa, UniProt Q79MP6); experiment: inhibition of IMP-1 beta-lactamase activity – biochemical, epi-absorbance, selectivity assay for VIM-2 inhibitor project, dose response (AID 1920)
Beta-lactamase [3] = biological target: T1, Beta-lactamase; experiment: […] counterscreen for selective VIM-2 inhibitors: dose response biochemical high throughput screening assay to identify inhibitors of IMP-1 metallo-beta-lactamase.
[4] = biological target: Fructose-bisphosphate aldolase (Mycobacterium tuberculosis, UniProt P9WQA3); experiment: Fluorescence-based biochemical high throughput dose response assay for inhibitors of the fructose-bisphosphate aldolase (FBA) of M. tuberculosis.; type: functional
[5] = biological target: T2, Tyrosine-protein phosphatase non-receptor type 22 (Homo sapiens, UniProt Q9Y2R2); experiment: lymphoid phosphatase LYP inhibitors – biochemical, selectivity assay for STEP inhibitor project, dose response (AID 624241); type: functional
T2 sequence (Q9Y2R2 whole entry): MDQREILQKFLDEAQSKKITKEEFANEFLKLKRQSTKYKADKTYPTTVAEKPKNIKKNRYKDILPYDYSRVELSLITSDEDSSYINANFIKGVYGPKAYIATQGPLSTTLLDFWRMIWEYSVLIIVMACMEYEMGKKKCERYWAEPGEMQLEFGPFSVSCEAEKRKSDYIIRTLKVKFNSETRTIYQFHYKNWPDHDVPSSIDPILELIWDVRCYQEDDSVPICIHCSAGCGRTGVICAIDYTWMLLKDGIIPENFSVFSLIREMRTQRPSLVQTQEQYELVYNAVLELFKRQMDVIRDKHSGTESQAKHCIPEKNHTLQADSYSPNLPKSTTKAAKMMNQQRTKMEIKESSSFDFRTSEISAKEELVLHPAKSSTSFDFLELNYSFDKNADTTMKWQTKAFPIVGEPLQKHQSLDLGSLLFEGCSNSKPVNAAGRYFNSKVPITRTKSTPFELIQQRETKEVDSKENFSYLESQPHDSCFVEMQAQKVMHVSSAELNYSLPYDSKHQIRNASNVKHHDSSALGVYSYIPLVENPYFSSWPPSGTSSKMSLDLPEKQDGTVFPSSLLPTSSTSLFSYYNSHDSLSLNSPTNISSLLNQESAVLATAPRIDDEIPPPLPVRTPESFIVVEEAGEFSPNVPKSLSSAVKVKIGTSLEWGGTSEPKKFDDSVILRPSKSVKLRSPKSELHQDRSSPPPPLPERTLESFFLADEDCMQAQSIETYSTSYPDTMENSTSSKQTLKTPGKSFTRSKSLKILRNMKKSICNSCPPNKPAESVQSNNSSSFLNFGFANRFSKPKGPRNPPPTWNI

[6] = biological target: Tyrosine-protein phosphatase non-receptor type 11 (Homo sapiens, UniProt Q06124); experiment: PTPN11 enzyme inhibitors – biochemical, selectivity assay for STEP inhibitor project, dose response (AID 602367); type: functional; settings: read-out: IC50_Mean
[7] = biological target: Tyrosine-protein phosphatase non-receptor type 5 (Homo sapiens, UniProt P54829); experiment: PTPN5 enzyme inhibition – biochemical, fluorescence intensity, uHTS hits, confirmation (AID 602372); type: functional; settings: read-out: IC50_Mean
[8] = biological target: Dual specificity protein phosphatase 3 (Homo sapiens, UniProt P51452); experiment: VHR phosphatase inhibition, dose response, selectivity assay for STEP inhibitor project, biochemical (AID 602374); type: functional; settings: read-out: IC50_Mean
Vero = experiment: viability loss in Vero cells – cell-based, plate reader, cherry-pick samples, cytotoxicity control, dose response (AID 687020); type: functional; settings: Chlorocebus sabaeus
[9] = HEK-293T cell viability reduction – luminescence, B-cell screen hits, cytotoxicity control for BCR NF-kB inhibitor project, dose response (AID 489021); type: functional, cell-based;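 also: HEK-293T cells carrying an NF-kB luciferase reporter; cells exposed to compound for about 14 hours before viability readout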
[10] = blockers of HIV-1 ZM109 envelope-driven cell-cell fusion – HeLa effector, CEM target cells, luciferase, cherry-pick, dose response (AID 652058); type: functional, cell-based;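 also: luciferase signal from HIV-1 Env mediated cell-cell fusion of effector and target cells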
[11] = A549 cell cytotoxicity, dose response, cytotoxicity control, plate reader, cherry-pick, antagonist series (AID 743412); type: functional, cell-based
INS1 = experiment: INS-1E survival protection against cytokine death – cell-based, luminescence, retest, dose response (AID 449756); type: functional; settings: Rattus norvegicus;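 also: cell death triggered by IL-1 beta plus TNF-alpha plus IFN-gamma mixture; protective hits raise ATP signal compared with cytokine alone wells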
[12] = HIV-1 AD8 envelope cell-cell fusion blockers – cherry-pick, dose response (AID 652062); type: functional, cell-based;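 also: luciferase signal from cell-cell fusion driven by HIV-1 clade B AD8 Env; potency is for inhibitors of fusion seen as a drop in luminescence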
[13] = blockade of melanocortin 4 receptor signaling – cell-based, plate reader, cherry pick, counter-screen for LGR2 antagonist project, dose response (AID 743444); type: functional;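 also: transfected HEK 293 cells stimulated with alpha-MSH peptide; potency of inhibitors of the alpha-MSH evoked signal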
[14] = viability loss in HEK293 cells – cell-based, plate reader, cherry-picked samples, cytotoxicity control, dose response (AID 743446); type: functional
[15] = viability loss in CEM21 cells – cell-based, CellTiter-Glo luminescence, cherry-picked, cytotoxicity control for viral fusion inhibitor project, dose response (AID 652042); type: functional;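 also: potency for signal decrease meaning cytotoxicity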
[16] = toxicity toward HepG2 liver cells – cell-based, plate reader, cherry-pick, antagonist series, cytotoxicity control, dose response (AID 743416); type: functional
[17] = blockers of bursicon-stimulated LGR2 cAMP reporter – cell-based, HEK293, CRE-luciferase reporter, cherry pick, set 2, dose response (AID 743343); type: functional;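 also: transfected cells were stimulated with diluted bursicon conditioned medium after compound addition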
[18] = off-target signal loss in HeLa-CEM21 co-culture – HeLa F-luc CTL cells, cherry-picked, counter-screen for HIV-1 Env fusion inhibitor project, dose response (AID 652040); type: functional, cell-based;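 also: potency for signal decrease marking cytotoxic or nonspecific inhibition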
[19] = blockers of HIV-1 envelope-mediated cell-cell fusion – cherry-pick, dose response (AID 652057); type: functional, cell-based
[20] = biological target: Glucose-6-phosphate 1-dehydrogenase (Homo sapiens, UniProt P11413); experiment: inhibition of Homo sapiens G6PD, dose series – biochemical, fluorescence, selectivity assay for P. falciparum G6PD inhibitor project, dose response (AID 504792); type: functional
[21] = viability loss in HeLa cells – cytotoxicity control for MgcRacGAP inhibitor project, dose response (AID 624300); type: functional
A549 = experiment: viability loss in A549 cells – cell-based, plate reader, cherry-pick samples, cytotoxicity control, dose response (AID 687028); type: functional; settings: Homo sapiens
[22] = Counterscreen for activators of the function of SWI/SNF related, matrix associated, actin dependent regulator of chromatin, subfamily a, member 2 (SMARCA2, BRM): Luminescence-based cell-based high throughput dose response assay to identify non-selective compounds using the VP16 reporter assay.; type: functional
[23] = biological target: SWI/SNF-related matrix-associated actin-dependent regulator of chromatin subfamily A member 2 (Homo sapiens, UniProt P51531); experiment: Luminescence-based cell-based high throughput dose response assay to identify activators of the function of SWI/SNF related, matrix associated, actin dependent regulator of chromatin, subfamily a, member 2 (SMARCA2, BRM).; type: functional
Paired box protein Pax-8 = Paired box protein Pax-8 (Homo sapiens, UniProt Q06710); experiment: PAX8 transcriptional activity inhibition in RMG-I – RMG-I cells, luciferase, cherry-pick, dose response (AID 687027); type: functional, cell-based;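 also: luciferase reporter driven by Pax8 target thyroperoxidase promoter measured by SteadyGlo luminescence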
[24] = inhibitors of EBV LMP1 NF-kappaB signaling – cell-based, luciferase reporter, luminescence, dry powder, set 2, dose response (AID 624376); type: functional
[25] = TNFa-induced NF-kB reporter signal decrease – HEK293 LMP1 reporter cells, dry powder, set 2, selectivity assay for EBV LMP1 NF-kB inhibitor project, dose response (AID 624369); type: functional
[26] = LMP1-induced NF-kB luciferase signal inhibition – cell-based, EBV LMP1, dry powder, set 2, dose response (AID 624361); type: functional
[27] = cytotoxicity in HEK293 background cells – cell-based, dry powder, set 2, counter-screen for EBV LMP1 inhibitor project, dose response (AID 624374); type: functional
[28] = biological target: Potassium channel subfamily K member 9 (Homo sapiens, UniProt Q9NPC2); experiment: KCNK9 flux blockade, concentration-response – cell-based, FluxOR thallium flux, selectivity assay for TASK1 inhibitor project, SAR follow-up (AID 652211); type: functional;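 also: potency is for inhibitors of the channel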
Chain of Potassium channel subfamily K member 9 (Q9NPC2 whole entry): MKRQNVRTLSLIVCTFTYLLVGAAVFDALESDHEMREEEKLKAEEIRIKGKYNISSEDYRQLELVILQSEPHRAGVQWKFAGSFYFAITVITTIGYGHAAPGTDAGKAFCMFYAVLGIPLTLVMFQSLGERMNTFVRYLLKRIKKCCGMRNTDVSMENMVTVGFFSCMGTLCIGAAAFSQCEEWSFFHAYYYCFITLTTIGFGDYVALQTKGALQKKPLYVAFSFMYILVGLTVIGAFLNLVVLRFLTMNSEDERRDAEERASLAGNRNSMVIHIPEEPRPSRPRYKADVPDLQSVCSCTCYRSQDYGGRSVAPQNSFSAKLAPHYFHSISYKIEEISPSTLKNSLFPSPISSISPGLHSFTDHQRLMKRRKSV

T1 sequence (Q79MP6 whole entry): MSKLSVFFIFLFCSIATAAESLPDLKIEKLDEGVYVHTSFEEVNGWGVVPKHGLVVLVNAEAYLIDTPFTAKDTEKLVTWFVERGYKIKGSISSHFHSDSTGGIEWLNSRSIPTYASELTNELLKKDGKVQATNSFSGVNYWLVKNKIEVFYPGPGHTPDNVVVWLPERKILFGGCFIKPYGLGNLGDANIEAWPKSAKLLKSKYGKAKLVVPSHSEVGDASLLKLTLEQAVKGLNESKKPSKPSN
Chain of Glucose-6-phosphate 1-dehydrogenase (P11413 whole entry): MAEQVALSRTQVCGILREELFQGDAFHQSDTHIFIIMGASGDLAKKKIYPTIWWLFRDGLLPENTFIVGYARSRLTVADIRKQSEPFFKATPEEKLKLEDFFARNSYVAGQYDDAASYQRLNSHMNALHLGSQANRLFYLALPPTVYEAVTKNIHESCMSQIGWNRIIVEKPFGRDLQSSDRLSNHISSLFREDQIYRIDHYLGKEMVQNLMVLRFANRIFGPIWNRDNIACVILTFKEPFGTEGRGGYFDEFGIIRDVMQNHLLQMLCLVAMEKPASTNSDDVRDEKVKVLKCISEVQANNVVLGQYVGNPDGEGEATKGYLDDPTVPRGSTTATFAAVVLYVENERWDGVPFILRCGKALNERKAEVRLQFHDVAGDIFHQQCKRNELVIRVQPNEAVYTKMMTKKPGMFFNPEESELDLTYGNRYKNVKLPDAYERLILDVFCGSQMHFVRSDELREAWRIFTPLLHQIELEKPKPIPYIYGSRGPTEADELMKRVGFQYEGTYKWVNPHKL
Chain of Beta-lactamase (Salmonella choleraesuis (strain SC-B67), UniProt Q5J463) (Q5J463 whole entry): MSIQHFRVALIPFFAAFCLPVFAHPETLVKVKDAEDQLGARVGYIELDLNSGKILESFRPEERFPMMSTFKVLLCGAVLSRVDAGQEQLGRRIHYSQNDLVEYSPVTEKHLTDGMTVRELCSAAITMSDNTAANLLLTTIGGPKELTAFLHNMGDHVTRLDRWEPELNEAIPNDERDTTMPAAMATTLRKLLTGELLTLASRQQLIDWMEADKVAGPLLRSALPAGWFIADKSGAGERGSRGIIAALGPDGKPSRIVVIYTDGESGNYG
Chain of Fructose-bisphosphate aldolase (P9WQA3 whole entry): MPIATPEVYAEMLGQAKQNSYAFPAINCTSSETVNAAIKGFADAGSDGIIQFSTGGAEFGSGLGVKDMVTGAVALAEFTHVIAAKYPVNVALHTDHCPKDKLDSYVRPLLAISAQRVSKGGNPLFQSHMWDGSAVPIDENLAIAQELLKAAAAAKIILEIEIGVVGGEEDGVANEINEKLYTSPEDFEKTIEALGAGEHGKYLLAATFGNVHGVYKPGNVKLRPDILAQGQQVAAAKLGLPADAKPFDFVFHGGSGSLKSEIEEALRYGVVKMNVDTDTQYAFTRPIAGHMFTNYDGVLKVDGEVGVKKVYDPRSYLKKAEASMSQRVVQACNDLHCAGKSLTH
Chain of Tyrosine-protein phosphatase non-receptor type 5 (P54829 whole entry): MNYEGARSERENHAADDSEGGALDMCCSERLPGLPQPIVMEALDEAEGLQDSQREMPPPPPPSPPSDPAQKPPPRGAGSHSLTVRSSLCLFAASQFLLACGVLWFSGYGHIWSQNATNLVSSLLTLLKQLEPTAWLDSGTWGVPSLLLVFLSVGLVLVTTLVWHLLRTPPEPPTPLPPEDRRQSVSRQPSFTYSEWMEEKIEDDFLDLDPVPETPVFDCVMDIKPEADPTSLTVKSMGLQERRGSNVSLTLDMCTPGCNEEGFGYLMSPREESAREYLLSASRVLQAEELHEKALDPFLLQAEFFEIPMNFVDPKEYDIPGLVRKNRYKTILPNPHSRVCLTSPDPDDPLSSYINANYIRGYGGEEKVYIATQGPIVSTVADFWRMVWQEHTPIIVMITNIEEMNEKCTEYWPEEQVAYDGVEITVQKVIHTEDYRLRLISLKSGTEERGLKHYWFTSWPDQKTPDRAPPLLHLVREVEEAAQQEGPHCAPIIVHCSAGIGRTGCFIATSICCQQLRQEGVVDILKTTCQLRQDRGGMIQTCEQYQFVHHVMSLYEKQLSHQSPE
Chain of Dual specificity protein phosphatase 3 (P51452 whole entry): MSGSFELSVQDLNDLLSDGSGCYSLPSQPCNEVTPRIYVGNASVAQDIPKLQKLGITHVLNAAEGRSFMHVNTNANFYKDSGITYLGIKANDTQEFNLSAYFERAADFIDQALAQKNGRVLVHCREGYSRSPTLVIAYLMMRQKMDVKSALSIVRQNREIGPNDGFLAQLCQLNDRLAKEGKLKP
Chain of SWI/SNF-related matrix-associated actin-dependent regulator of chromatin subfamily A member 2 (P51531 whole entry): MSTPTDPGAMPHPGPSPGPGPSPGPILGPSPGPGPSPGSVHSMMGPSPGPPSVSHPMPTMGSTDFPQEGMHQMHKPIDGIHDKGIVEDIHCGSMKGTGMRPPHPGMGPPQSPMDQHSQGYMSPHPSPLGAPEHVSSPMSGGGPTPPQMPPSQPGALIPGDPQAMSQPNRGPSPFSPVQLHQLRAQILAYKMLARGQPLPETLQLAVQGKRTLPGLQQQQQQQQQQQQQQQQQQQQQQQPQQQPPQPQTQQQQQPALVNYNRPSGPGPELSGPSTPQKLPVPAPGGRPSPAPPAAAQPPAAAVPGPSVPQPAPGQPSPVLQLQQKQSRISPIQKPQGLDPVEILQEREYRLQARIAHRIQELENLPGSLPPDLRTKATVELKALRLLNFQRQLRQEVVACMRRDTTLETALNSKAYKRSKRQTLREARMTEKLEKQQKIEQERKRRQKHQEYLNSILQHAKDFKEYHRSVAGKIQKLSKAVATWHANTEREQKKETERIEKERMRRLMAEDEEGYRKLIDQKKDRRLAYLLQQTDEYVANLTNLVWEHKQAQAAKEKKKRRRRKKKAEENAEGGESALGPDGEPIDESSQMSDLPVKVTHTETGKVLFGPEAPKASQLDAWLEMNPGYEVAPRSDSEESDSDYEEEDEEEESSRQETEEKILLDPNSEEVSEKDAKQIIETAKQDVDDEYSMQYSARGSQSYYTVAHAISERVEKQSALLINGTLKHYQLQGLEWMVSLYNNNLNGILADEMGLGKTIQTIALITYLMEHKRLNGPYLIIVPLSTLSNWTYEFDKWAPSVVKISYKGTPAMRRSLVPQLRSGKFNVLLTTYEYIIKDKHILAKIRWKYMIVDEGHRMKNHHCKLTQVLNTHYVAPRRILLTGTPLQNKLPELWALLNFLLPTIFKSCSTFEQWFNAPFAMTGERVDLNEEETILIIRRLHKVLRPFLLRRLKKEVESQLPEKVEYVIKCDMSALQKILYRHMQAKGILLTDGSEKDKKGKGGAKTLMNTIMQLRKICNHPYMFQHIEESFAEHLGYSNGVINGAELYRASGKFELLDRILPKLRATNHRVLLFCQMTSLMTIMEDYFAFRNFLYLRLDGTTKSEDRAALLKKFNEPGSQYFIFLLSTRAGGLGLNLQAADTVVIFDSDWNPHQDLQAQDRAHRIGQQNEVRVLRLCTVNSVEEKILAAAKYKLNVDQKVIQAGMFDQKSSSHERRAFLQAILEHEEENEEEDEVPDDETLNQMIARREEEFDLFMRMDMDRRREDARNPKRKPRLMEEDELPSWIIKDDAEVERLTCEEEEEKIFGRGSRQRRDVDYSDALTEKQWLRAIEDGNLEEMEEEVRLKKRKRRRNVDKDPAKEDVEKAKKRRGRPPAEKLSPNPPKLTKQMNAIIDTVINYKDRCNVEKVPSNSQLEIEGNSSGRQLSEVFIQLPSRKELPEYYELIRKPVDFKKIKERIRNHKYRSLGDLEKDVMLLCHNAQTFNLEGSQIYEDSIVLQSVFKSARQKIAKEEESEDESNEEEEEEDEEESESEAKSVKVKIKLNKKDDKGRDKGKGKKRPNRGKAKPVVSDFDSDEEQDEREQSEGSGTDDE
Chain of Paired box protein Pax-8 (Q06710 whole entry): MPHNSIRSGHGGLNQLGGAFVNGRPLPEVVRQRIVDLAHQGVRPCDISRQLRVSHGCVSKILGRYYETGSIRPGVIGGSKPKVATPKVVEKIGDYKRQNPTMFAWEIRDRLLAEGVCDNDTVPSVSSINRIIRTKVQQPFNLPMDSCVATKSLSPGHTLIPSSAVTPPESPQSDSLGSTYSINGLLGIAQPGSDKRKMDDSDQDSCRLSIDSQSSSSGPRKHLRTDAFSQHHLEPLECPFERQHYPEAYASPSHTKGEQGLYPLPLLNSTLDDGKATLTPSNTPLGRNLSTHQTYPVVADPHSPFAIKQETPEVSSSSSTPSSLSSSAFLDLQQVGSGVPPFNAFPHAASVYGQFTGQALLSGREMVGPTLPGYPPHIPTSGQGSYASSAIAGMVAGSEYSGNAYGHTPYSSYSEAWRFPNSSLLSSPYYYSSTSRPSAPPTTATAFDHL

**Q.** For `O=C(CSc1nnc(NC(=O)C2CC2)s1)NCc1ccccc1Cl`, which IC50 (Beta-lactamase [1]) is on record?
**A.** > 59.6 µM (inactive)

**Q.** And the IC50 (Beta-lactamase [2])?
**A.** > 59.6 µM (inactive)

**Q.** And the IC50 (Beta-lactamase [3])?
**A.** > 59.6 µM (inactive)

**Q.** For `CC(=O)NN1C(=O)c2ccccc2NC1c1ccccn1` (configuration not stated), which IC50 [4] is on record?
**A.** 3.49 µM (active)

**Q.** With `SC1=NC2=C(CCCC2=C2SCCS2)C(c2ccccc2)N1` (configuration not stated) as the compound, how does the IC50 [5] read?
**A.** > 100 µM (inactive)

**Q.** What about the IC50 [6] of the same compound?
**A.** 5.27 µM (active)

**Q.** And the IC50 [7]?
**A.** 22.6 µM (inactive)

**Q.** What about the IC50 [8] of the same compound?
**A.** 1.23 µM (active)

**Q.** Which AC50 (Vero) does the source give for `CCCCC[C@H]1CN(CCc2ccccc2)C(=O)[C@@H]1CC(=O)NCc1ccc(OC)cc1` here?
**A.** 33.9 µM (active)

**Q.** For `CC(C)CN(C(=O)COC(=O)C12CC3CC(CC(C3)C1)C2)c1c(N)n(Cc2ccccc2)c(=O)[nH]c1=O`, which IC50 [9] is on record?
**A.** > 80 µM (inactive)

**Q.** What about the AC50 [10] of the same compound?
**A.** 11.4 µM (active)

**Q.** What about the AC50 [11] of the same compound?
**A.** 8.64 µM (active)

**Q.** What about the AC50 (INS1) of the same compound?
**A.** 3.62 µM (active)

**Q.** What about the AC50 [12] of the same compound?
**A.** 18.3 µM (active)

**Q.** And the AC50 [13]?
**A.** 30.2 µM (active)

**Q.** And the AC50 [14]?
**A.** 16.6 µM (active)

**Q.** What about the AC50 [15] of the same compound?
**A.** 13.1 µM (active)

**Q.** And the AC50 [16]?
**A.** 13.7 µM (active)

**Q.** What about the AC50 [17] of the same compound?
**A.** 43.8 µM (active)

**Q.** What about the AC50 [18] of the same compound?
**A.** 17 µM (active)

**Q.** What about the AC50 [19] of the same compound?
**A.** 9.69 µM (active)

**Q.** Which IC50 [20] does the source give for `O=[N+]([O-])c1cnc(Sc2ccncn2)c([N+](=O)[O-])c1` here?
**A.** > 80 µM (inactive)

**Q.** What about the CC50 [21] of the same compound?
**A.** 34.1 µM (active)

**Q.** For `CC1(C(=O)NCc2cccs2)Cc2c(-c3cccc(C(F)(F)F)c3)ccnc2O1` (configuration not stated), which AC50 (A549) is on record?
**A.** 17.6 µM (active)

**Q.** With `CN(C)c1ncnc2c1nnn2C1OC(CO)C(O)C1O` (configuration not stated) as the compound, how does the EC50 [22] read?
**A.** > 91.2 µM (inactive)

**Q.** And the EC50 [23]?
**A.** > 91.2 µM (inactive)

**Q.** What about the AC50 (Paired box protein Pax-8) of the same compound?
**A.** < 0.26 µM (active)

**Q.** For `CC(C)NC(=O)N1[C@H](CO)[C@H](c2ccc(C#CC3CCCCC3)cc2)[C@@H]1C#N`, which AbsAC35 [24] is on record?
**A.** 62.28 µM

**Q.** And the AbsAC35 [25]?
**A.** 202.7 µM

**Q.** What about the AbsAC35 [26] of the same compound?
**A.** 53.56 µM

**Q.** Which AbsAC35 [27] does the source give for `C[C@@H]1CN([C@@H](C)CO)C(=O)c2c(c3ccccc3n2C)-c2ccccc2CO[C@H]1CN(C)C(=O)Nc1ccc(F)cc1` here?
**A.** 204.77 µM

**Q.** Which IC50 [28] does the source give for `Cc1cccc(C(=O)Nc2cccc(NC(=O)c3ccccc3Cl)c2)c1` here?
**A.** 19.8 µM (active)

Reference: ChEMBL document CHEMBL1201862, “PubChem BioAssay data set” (2004)
